{"source": "ChEMBL document CHEMBL1177729", "about": "“Nortriterpene lactones from the fruits of Schisandra arisanensis” (2010)", "key": {"[1]": {"system": "Neutrophil", "experiment": "Antiinflammatory activity in human neutrophils assessed as inhibition of FMLP/CB-induced elastase release at 10 ug/mL", "type": "functional"}, "[2]": {"system": "Human alphaherpesvirus 1", "experiment": "Antiviral activity against HSV1 KOS infected in african green monkey Vero cells assessed as inhibition of viral plaque formation in […] cells at 100 uM after 5 days by plaque reduction assay", "type": "functional", "settings": "Human alphaherpesvirus 1, KOS, 120 h"}}, "data": [{"smiles": "C[C@H]([C@H](O)[C@@H]1C[C@@H](C)C(=O)O1)[C@@H]1[C@H]2[C@]1(C)CC[C@@]13O[C@]2(O)C(=O)[C@@H]1CC[C@H]1C(C)(C)O[C@@H]2[C@@H](O)C(=O)O[C@@]21[C@H]3O", "values": [{"measurement": "inhibition at 10 µg/mL", "setting": "[1]", "value": 18.5, "unit": "%"}]}, {"smiles": "C[C@H]1C(=O)[C@@]2(C)CC[C@]34C[C@]56OC(=O)C[C@@]5(O)OC(C)(C)[C@@H]6C[C@H](O)[C@H]3C(=O)[C@@]3(O[C@H]5[C@H](OC(=O)[C@]5(C)O)[C@@H]1[C@]32C)O4", "note": "[ARISANLACTONE B]", "values": [{"measurement": "inhibition at 10 µg/mL", "setting": "[1]", "value": 22.2, "unit": "%"}, {"measurement": "inhibition at 100 µM", "setting": "[2]", "value": 25, "unit": "%"}]}, {"smiles": "O=c1c(-c2ccc(O)cc2)coc2cc(O)cc(O)c12", "note": "[GENISTEIN]", "values": [{"measurement": "inhibition at 10 µg/mL", "setting": "[1]", "value": 51.6, "unit": "%"}]}, {"smiles": "C[C@@H]1C(=O)O[C@H]2[C@@H]1O[C@]13O[C@@]4(CC[C@]5(C)C(=O)[C@H](C)[C@H]2[C@]15C)C[C@]12OC(=O)C[C@@]1(O)OC(C)(C)[C@@H]2C[C@H](O)[C@H]4C3=O", "note": "[SCHINDILACTONE E]", "values": [{"measurement": "inhibition at 100 µM", "setting": "[2]", "value": 30, "unit": "%"}]}]}
